According to patent US11345711B2, “8,9-dihydroimidazo[1,2-a]pyrimido[5,4-e]pyrimidin-5(6H)-ones” (IMPACT THERAPEUTICS (SHANGHAI), INC, priority 2016, dated 2022):
Read-outs that look alike come from different tables or passages of the source.

Tests used:
Wee1 (h) = Wee1 (h) (Homo sapiens, UniProt P30291); assay: Wee1 kinase (h) detection method, [γ-33P]-ATP filter assay; assay type: biochemical
advanced solid tumors = settings: cited from earlier work
LoVo cells = assay: MTT based cell viability assay on LoVo cells; settings: Homo sapiens, LoVo, 72 h, 3 d, read-out: IC50, growth inhibition of LoVo cells
Summary of the method: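 Inhibition of LoVo proliferation was derived as IC50 from a sigmoidal dose-response fit of cell survival. Readout was MTT (0.5 mg/mL, 4 h) with absorbance at 552/630/690 nm, after 3-day treatment at 37 °C. Eight-point series from 10 μM to 0.01 μM, DMSO control, 1% DMSO final.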

NCI-H1299 cells = assay: MTT based cell viability assay on NCI-H1299 cells; settings: Homo sapiens, read-out: IC50, growth inhibition of NCI-H1299 cells
Summary of the method: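 Viability read-out was MTT reduction (0.5 mg/mL, 4 h, absorbance 552/630/690 nm) after 3-day compound exposure at 37 °C of NCI-H1299 cells seeded at 1000 per well. Dilutions spanned 10 μM–0.01 μM in DMSO, final DMSO 1‰. Survival-versus-concentration curves were fitted sigmoidally to give IC50.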

[1] = molecular target: T1, human Wee1 (amino acids M291 to K575) (Homo sapiens, UniProt P30291); assay: Wee1 dissociation constant (Kd), KINOMEscan KdELECT competitive binding test; settings: 11-point 3-fold dilution
T1 construct: host or cells: E. coli BL21 infected with T7 phage
Method: Determination of Wee1 Dissociation Constant (Kd)
The Wee1 dissociation constants (Kd) which measures the affinity of tested compound to Wee 1 have been determined in the KINOMEscan™ KdELECT Service at DiscoveRx. KINOMEscan™ assay is based on competitive binding test. The affinity index Kd for Wee1 is calculated by qPCR measurement of the compounds that compete with the immobilized ligand and bind to the enzyme activity center.
Wee1 kinase-tagged T7 phage strains were prepared in an E. coli BL21 strain. E. coli was grown to log-phase and infected with T7 phage and incubated with shaking at 32° C. until lysis. The lysates were centrifuged and filtered to remove cell debris. A partial length construct of human Wee1 (amino acids M291 to K575 based on reference sequence NP_003381.1) was expressed on the T7 phage coat. A short DNA sequence, embedded within the T7 phage genome, was used as amplicon for detection via qPCR. […]
Test compounds were prepared as 111× stocks in 100% DMSO. Kas were determined using an 11-point 3-fold compound dilution series with three DMSO control points. […] The kinase concentration in the eluates was measured by qPCR. qPCR reactions were assembled by adding 2.5 μL of kinase eluate to 7.5 μL of qPCR master mix containing 0.15 μM amplicon primers and 0.15 μM amplicon probe. […]
The constants (KdS) were calculated with a standard dose-response curve using the Hill equation: […]

[2] = AZD1775 alone or in combination with gemcitabine, cisplatin or carboplatin, 176 evaluable patients

Sequence of Wee1 (h) (P30291 whole entry): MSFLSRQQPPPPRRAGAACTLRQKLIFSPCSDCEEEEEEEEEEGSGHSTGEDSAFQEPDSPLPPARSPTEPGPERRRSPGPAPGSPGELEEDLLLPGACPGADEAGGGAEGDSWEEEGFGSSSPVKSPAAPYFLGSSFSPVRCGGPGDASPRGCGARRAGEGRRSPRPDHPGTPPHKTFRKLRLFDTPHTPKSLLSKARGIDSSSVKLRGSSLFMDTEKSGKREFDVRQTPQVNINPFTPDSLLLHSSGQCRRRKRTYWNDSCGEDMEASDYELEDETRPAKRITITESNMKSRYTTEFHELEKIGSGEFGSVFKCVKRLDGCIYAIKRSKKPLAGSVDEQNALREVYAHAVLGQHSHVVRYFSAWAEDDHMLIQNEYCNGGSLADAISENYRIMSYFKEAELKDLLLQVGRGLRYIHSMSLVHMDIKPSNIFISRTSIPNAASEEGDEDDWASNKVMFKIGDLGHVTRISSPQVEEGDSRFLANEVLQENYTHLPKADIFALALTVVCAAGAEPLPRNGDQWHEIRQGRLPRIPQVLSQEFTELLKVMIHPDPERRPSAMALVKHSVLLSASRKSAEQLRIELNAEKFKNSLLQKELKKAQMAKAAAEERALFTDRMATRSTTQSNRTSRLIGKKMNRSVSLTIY
T1 sequence (P30291 291-575): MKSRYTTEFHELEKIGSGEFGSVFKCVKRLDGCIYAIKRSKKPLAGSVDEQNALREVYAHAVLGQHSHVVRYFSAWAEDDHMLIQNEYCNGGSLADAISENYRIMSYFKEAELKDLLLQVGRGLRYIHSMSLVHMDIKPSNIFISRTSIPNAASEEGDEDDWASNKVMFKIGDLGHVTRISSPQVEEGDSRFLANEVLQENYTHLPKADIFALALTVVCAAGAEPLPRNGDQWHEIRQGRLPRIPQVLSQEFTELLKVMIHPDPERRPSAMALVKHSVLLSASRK

Row | SMILES | Inh. (%) of Wee1 kinase enzyme activity (Wee1 (h); C 10 μm compound) | IC50 (LoVo cells) | IC50 (NCI-H1299 cells; NCI-H1299 cells) | Inh. (%) of Wee1 kinase enzyme activity (Wee1 (h); C 1 μm compound) | other results
1 | C=CCn1c(=O)c2cnc(Nc3ccc(N4CCN(C)CC4)cc3)nc2n1-c1cccc(C(C)(C)O)n1 [AZD1775] | 97% | 389 nM | – | – | partial response (advanced solid tumors; [2]): 10%; stable disease as the best response (advanced solid tumors; [2]): 53%; response rate (advanced solid tumors; TP53 wild-type patients (n=33)): 12%; safety and tolerability (advanced solid tumors; alone or in combination with chemotherapy, at a certain dose): safe and tolerable; response rate (advanced solid tumors; patients with TP53 mutation (n=19)): 21%; IC50 (NCI-H1299 cells; NCI-H1299, NCI-H1299 cells): 287 nM
2 | CN1CCN(c2ccc(Nc3ncc4c(n3)N3CCN=C3N(c3ccccc3Cl)C4=O)cc2)CC1 [Example 1, 6-(2-chlorophenyl)-2-((4-(4-methylpiperazin-1-yl)phenyl)amino)-8,9-dihydroimidazo[1,2-a]pyrimido[5,4-e]pyrimidin-5(6H)-one] | 96% | 3580 nM | 1590 nM | – | Kd [1]: 250 nM
3 | CN1CCN(c2ccc(Nc3ncc4c(n3)N3CCN=C3N(c3c(F)cccc3Cl)C4=O)cc2)CC1 [Example 2, 6-(2-Chloro-6-fluorophenyl)-2-((4-(4-methylpiperazin-1-yl)phenyl)amino)-8,9-dihydroimidazo[1,2-a]pyrimido[5,4-e]pyrimidin-5(6H)-one] | 95% | 425 nM | – | – | Kd [1]: 34 nM; IC50 (NCI-H1299 cells; NCI-H1299, NCI-H1299 cells): 782 nM
4 | O=C1c2cnc(Nc3ccc(N4CCNCC4)c(CO)c3)nc2N2CCN=C2N1c1c(F)cccc1Cl [Example 179, 6-(2-Chloro-6-fluorophenyl)-2-((3-(hydroxymethyl)-4-(piperazin-1-yl)phenyl)amino)-8,9-dihydroimidazo[1,2-a]pyrimido[5,4-e]pyrimidin-5(6H)-one] | – | 2860 nM | 70600 nM | 95% | –
5 | O=C1c2cnc(Nc3ccc(N4CCNCC4)c(CO)c3)nc2N2CCN=C2N1c1c(Cl)cccc1Cl [Example 180, 6-(2,6-Dichlorophenyl)-2-((3-(hydroxymethyl)-4-(piperazin-1-yl)phenyl)amino)-8,9-dihydroimidazo[1,2-a]pyrimido[5,4-e]pyrimidin-5(6H)-one] | – | 2380 nM | 2050 nM | 96% | –
6 | O=C1c2cnc(Nc3ccc(N4CCOCC4)cc3)nc2N2CCN=C2N1c1c(Cl)cccc1Cl [Example 183, 6-(2,6-Dichlorophenyl)-2-((4-morpholinophenyl)amino)-8,9-dihydroimidazo[1,2-a]pyrimido[5,4-e]pyrimidin-5(6H)-one] | – | 775 nM | 1040 nM | 95% | –

The next compounds have a lower IC50 (LoVo cells) than those just listed; values first:

Row | Inh. (%) of Wee1 kinase enzyme activity (Wee1 (h); C 10 μm compound) | IC50 (LoVo cells) | IC50 (NCI-H1299 cells; NCI-H1299 cells) | Inh. (%) of Wee1 kinase enzyme activity (Wee1 (h); C 1 μm compound) | SMILES | other results
7 | – | 281 nM | 360 nM | 94% | COc1cc(Nc2ncc3c(n2)N2CCN=C2N(c2c(Cl)cccc2Cl)C3=O)ccc1N1CCNCC1 [Example 178, 6-(2,6-Dichlorophenyl)-2-((3-methoxy-4-(piperazin-1-yl)phenyl)amino)-8,9-dihydroimidazo[1,2-a]pyrimido[5,4-e]pyrimidin-5(6H)-one] | –
8 | – | 243 nM | 503 nM | 94% | O=C1c2cnc(Nc3ccc(N4CCN(CCO)CC4)cc3)nc2N2CCN=C2N1c1c(Cl)cccc1Cl [Example 182, 6-(2,6-Dichlorophenyl)-2-((4-(4-(2-hydroxyethyl)piperazin-1-yl)phenyl)amino)-8,9-dihydroimidazo[1,2-a]pyrimido[5,4-e]pyrimidin-5(6H)-one] | –
9 | – | 142 nM | 187 nM | 96% | CN1CCN(c2ccc(Nc3ncc4c(n3)N3CCN=C3N(c3c(Cl)cccc3Cl)C4=O)cc2CO)CC1 [Example 181, 6-(2,6-Dichlorophenyl)-2-((3-(hydroxymethyl)-4-(4-methylpiperazin-1-yl)phenyl)amino)-8,9-dihydroimidazo[1,2-a]pyrimido[5,4-e]pyrimidin-5(6H)-one] | –
